# Assay results taken from patent US6733971B2, “Method for identifying an agent that affects a hedgehog signaling pathway” (priority 1998, dated 2004).
# Experiments:
# COUP-TFII mRNA = COUP-TFII mRNA in P19 cells, RNase protection assay; type: cell-based, mouse; conditions: 5 nM for 12 hours, with 1.0 nM Shh-N
# Description: The P19 mouse embryo carcinoma cell line which was earlier shown to contain increased levels of COUP-TF transcripts after retinoid treatment was utilized. Jonk, L. J. C., et al., Mechan. of Dev. (1994) 47:81-97). Conditioned media obtained from COS-1 cells transfected with mouse Shh-N cDNA expression plasmid or purified E. coli expressed recombinant Shh-N was used.
# Briefly, a total of 20 μg RNA was hybridized to a 450 (FIG. 5A) or 120 (FIG. 7B) nucleotide riboprobe that corresponds to the 5′ untranslated region (UTR) of the COUP-TFII gene along with a 670 (FIG. 5A) or 102 (FIG. 7B) nucleotide riboprobe of the murine Cyclophilin A coding region. The RPA II™ kit from Ambion was used to perform the RNase protection assay. The products were subjected to RNase digestion and analyzed on a 6% urea polyacrylamide gel.
# (§1) P-19 cells were treated with phosphatase inhibitors to study the endogenous levels of COUP-TFII mRNA. […] Total RVA was isolated from these cells and 20 μg of RNA was used in a RNase protection assay as described above in Example 6. A region of the murine Cyclophilin A cDNA was used to generate riboprobe and was used as an internal control. P19 cells were co-treated with (FIG. 7C, lane 2, 4, 6, and 7) or without (FIG. 7C, lane 1, 3, and 5) 1.0 nM Shh-N and 5 nM OA (lane 3 and 4), 0.5 nM CyA (FIG. 7C, lane 5 & 6) or 5 nm NoA (FIG. 7C, lane 9). Cells were harvested after 24 hours of treatment and the nuclear extract was obtained for the binding reactions. Extracts were subjected to an EMSA as described earlier.
# ShhRE = assay: EMSA of Shh-induced protein binding to radiolabeled ShhRE, P19 nuclear extracts; type: cell-based, mouse; conditions: 5 nM, 1.0 nM Shh-N, 24 hours
# Description: Methods described in Example 6 were used in addition to the following protocols. P19 cells were treated with or without Shh-N for 24 hours and nuclear extracts were obtained and used in an electrophoretic mobility shift assay (EMSA) with radiolabeled ShhRE. The following oligos were used as competitors or probes in these assays; WT ShhRE—GTTCTACATAATGCGCCG—SEQ ID NO:1; mShhRE—GTTCTACgTgATGCGCCG—SEQ ID NO:3; GliRE—[…]—. SEQ ID NO:4, Different amounts of unlabeled Gli response element (GliRE) (FIG. 5C, lane 3, 100X; lane 4, 50X; lane 5, 25X; and lane 6, 10X) or ShhRE (lane 7; 100X, lane 8; 50X and lane 9; 10X) was used as a competitor at the indicated molar excess.
# In EMSA, radiolabeled probe was incubated with the nuclear extracts (10 μg) along with 4 μg poly dG-dC in a binding reaction containing 10 mM Tris pH 7.5, 50 mM NaCl, 1 mM EDTA, 1 mM DTT, 0.1 mg/ml BSA, and 5% glycerol. Later the mixture was loaded onto a 5% polyacrylamide gel and the retarded complexes were separated-in 1× TBE buffer and analyzed using autoradiography.
# as §1
# SV40 enhancer = assay: Constitutively active SV40 enhancer luciferase reporter (specificity control); type: cell-based; conditions: 5 nM (data not shown)
# ShhRE reporter gene = assay: Shh-N mediated induction of ShhRE reporter gene activity; type: cell-based, mouse; conditions: 5 nM (data not shown)
# Description: Methods described above in Example 6 were used in addition to the following protocols. P19 cells were transfected with a ShhRE-tkLUC reporter plasmid and three copies of a mutant element called mShhRE-tkLUC and treated with or without 1 nM Shh. Cell lysates were obtained after 30 hours and were later assayed for luciferase reporter activity. A graph (FIG. 5B) representing relative luciferase units per twenty μg (RLU/20 μg) was plotted using results obtained from three separate experiments (mean ±sd).
# [1] = tested on: Islet-1 and neurofilament (NFL); assay: Mouse neural tube explants, whole-mount immunostaining; type: cell-based; conditions: 5 nM for 24 hours
# Description: Mouse embryos at embryonic day 9-9.5 were dissected in such a way as to remove surface ectoderm and somitic mesoderm and neural tubes were isolated from the level of rhombomere 8 in the rostral region to the first segmenting somite in the caudal region. Neural tubes were cultured for 24 hours, dorsal-side down on Millicell-CM membranes and overlayed with Matrigel™ containing 10 ng/ml NT-3, with L15 air in presence or absence of 5nM OA. The explants were subjected to whole-mount immunostaining using a monoclonal antibody raised against mouse Islet-1 (39.4D5) or neurofilament (NFL) was used to analyze any changes in Islet-1 and NFL expression.
smiles,measurement,setting,value
"C=C1[C@@H](O)[C@@H]2O[C@]3(CC[C@H](/C=C/[C@@H](C)[C@@H]4CC(C)=C[C@@]5(O[C@H](C[C@@](C)(O)C(=O)O)CC[C@H]5O)O4)O3)CC[C@H]2O[C@@H]1[C@@H](O)C[C@H](C)[C@H]1O[C@@]2(CCCCO2)CC[C@H]1C [OA, okadaic acid]",Shh-induced COUP-TFII mRNA,COUP-TFII mRNA,complete inhibition
same,Shh-induced binding to radiolabeled ShhRE,ShhRE,abolished
same,SV40 enhancer driven luciferase reporter gene activity,SV40 enhancer,did not effect
same,Shh-N mediated induction of ShhRE reporter gene activity,ShhRE reporter gene,completely blocked
same,neurofilament staining within the neural tube,[1],no effect
same,levels of immunodetectable Is11 protein,[1]; 9.5 dpc mouse neural tube explants,significantly decreased
